SMILES strings stand for the structures. Inconclusive results and toxic doses are left out.

For this assay, the system named is L1210 leukemia ip in BDF1 mice, survival T/C. Nature of the assay: NCI In Vivo Anticancer Drug Screen. Data for tumor model L1210 Leukemia (intraperitoneal) in B6D2F1 (BDF1) mice. Conditions: endpoint: mean survival time, higher = longer survival. In outline:
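Tumor cells were implanted, animals were treated, and survival was followed. The result divides the treated measurement by the vehicle-control measurement.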

Where [1] appears, read: dose: 100.0 mg/kg/injection, schedule: Q01DX001 (ip), vehicle: carboxymethylcellulose (CMC).
The mark [2] stands for this setting: dose: 200.0 mg/kg/injection, schedule: Q01DX001 (ip), vehicle: carboxymethylcellulose (CMC).
[3] abbreviates: dose: 400.0 mg/kg/injection, schedule: Q01DX001 (ip), vehicle: carboxymethylcellulose (CMC).
The mark [4] stands for this setting: dose: 100.0 mg/kg/injection, schedule: Q04DX002 (ip), vehicle: Klucel (hydroxypropylcellulose) (HPC).
Setting [5] is: dose: 200.0 mg/kg/injection, schedule: Q01DX009 (ip), vehicle: saline.
The mark [6] stands for this setting: dose: 100.0 mg/kg/injection, schedule: Q01DX009 (ip), vehicle: Klucel (hydroxypropylcellulose) (HPC).
The mark [7] stands for this setting: dose: 75.0 mg/kg/injection, schedule: Q01DX009 (ip), vehicle: Klucel (hydroxypropylcellulose) (HPC).
The mark [8] stands for this setting: dose: 100.0 mg/kg/injection, schedule: Q04DX003 (ip), vehicle: other.
The mark [9] stands for this setting: dose: 150.0 mg/kg/injection, schedule: Q01DX009 (ip), vehicle: Klucel (hydroxypropylcellulose) (HPC).
Where [10] appears, read: dose: 100.0 mg/kg/injection, schedule: Q01DX001 (ip), vehicle: saline.
Setting [11] is: dose: 200.0 mg/kg/injection, schedule: Q01DX001 (ip), vehicle: saline.

For the compound `CS(=O)(=O)n1c(CO)nc2ccccc21`, the T/C reads like this: under setting [1], 101 % of control; under setting [2], 92 % of control; under setting [3], 97 % of control.

On to `CCN(CC#CCOc1ccc(Cl)cc1)c1ccccc1`, for which the T/C by setting is: (dose: 25.0 mg/kg/injection, schedule: Q04DX002 (ip), vehicle: Klucel (hydroxypropylcellulose) (HPC)) 99 % of control; (dose: 50.0 mg/kg/injection, schedule: Q04DX002 (ip), vehicle: Klucel (hydroxypropylcellulose) (HPC)) 93 % of control; under setting [4], 93 % of control.

Regarding `CCc1c2cc(OC)c(OC)cc2cc2c3cc(OC)c(OC)cc3cc[n+]12` (tested in a mixture with another compound), the T/C reads like this: (dose: 25.0 mg/kg/injection, schedule: Q01DX009 (ip), vehicle: saline) 116 % of control; (dose: 50.0 mg/kg/injection, schedule: Q01DX009 (ip), vehicle: saline) 123 % of control; (dose: 66.0 mg/kg/injection, schedule: Q01DX009 (ip), vehicle: saline with Tween-80) 150 % of control; (dose: 88.0 mg/kg/injection, schedule: Q04DX003 (ip), vehicle: saline) 121 % of control; (dose: 100.0 mg/kg/injection, schedule: Q01DX009 (ip), vehicle: saline with Tween-80) 160 % of control; (dose: 150.0 mg/kg/injection, schedule: Q01DX009 (ip), vehicle: saline with Tween-80) 156 % of control. Besides, the T/C under setting [5] was 89 % of control and the T/C (dose: 300.0 mg/kg/injection, schedule: Q04DX003 (ip), vehicle: saline) was 107 % of control.

Regarding `CCCCCC(=C/c1ccccc1)/C=N/NC(=O)c1ccc[n+](C)c1`, the T/C is 90 % of control (dose: 50.0 mg/kg/injection, schedule: Q01DX009 (ip), vehicle: Klucel (hydroxypropylcellulose) (HPC)) and 98 % of control under setting [6].

`CCn1cnc2c(SC)nc(N)nc21`: the T/C is, setting by setting: (dose: 37.5 mg/kg/injection, schedule: Q01DX009 (ip), vehicle: Klucel (hydroxypropylcellulose) (HPC)) 101 % of control; (dose: 50.0 mg/kg/injection, schedule: Q04DX003 (ip), vehicle: other) 101 % of control; under setting [7], 103 % of control; under setting [8], 104 % of control; under setting [9], 108 % of control; (dose: 200.0 mg/kg/injection, schedule: Q04DX003 (ip), vehicle: other) 87 % of control.

For `CCCCCCCCCCCCCCCCSCCCCCCCCCCCSCCCCCCCCCCCCCCCC`, the T/C is 89 % of control (dose: 100.0 mg/kg/injection, schedule: Q01DX001 (ip), vehicle: Klucel (hydroxypropylcellulose) (HPC)); 94 % of control (dose: 200.0 mg/kg/injection, schedule: Q01DX001 (ip), vehicle: Klucel (hydroxypropylcellulose) (HPC)); 102 % of control (dose: 400.0 mg/kg/injection, schedule: Q01DX001 (ip), vehicle: Klucel (hydroxypropylcellulose) (HPC)).

Consider `CC(N)C(=O)O` (stereo not drawn), for which the T/C (dose: 25.0 mg/kg/injection, schedule: Q04DX002 (ip), vehicle: saline) is 101 % of control; the T/C (dose: 50.0 mg/kg/injection, schedule: Q04DX002 (ip), vehicle: saline) was 101 % of control; the T/C under setting [10] was 92 % of control; the T/C (dose: 100.0 mg/kg/injection, schedule: Q01DX009 (ip), vehicle: saline) is 104 % of control; the T/C (dose: 100.0 mg/kg/injection, schedule: Q04DX002 (ip), vehicle: saline) was 104 % of control; the T/C (dose: 100.0 mg/kg/injection, schedule: Q04DX003 (ip), vehicle: saline) was 97 % of control. Moreover, the T/C is, setting by setting: under setting [11], 96 % of control; under setting [5], 91 % of control; (dose: 200.0 mg/kg/injection, schedule: Q04DX003 (ip), vehicle: saline) 100 % of control; (dose: 400.0 mg/kg/injection, schedule: Q01DX001 (ip), vehicle: saline) 105 % of control; (dose: 400.0 mg/kg/injection, schedule: Q01DX009 (ip), vehicle: saline) 98 % of control; (dose: 400.0 mg/kg/injection, schedule: Q04DX003 (ip), vehicle: saline) 100 % of control.

`COc1ccc(C(CC(=O)c2ccc(C)cc2)Sc2ccccc2N)cc1` (stereo not drawn): the T/C reads like this: (dose: 100.0 mg/kg/injection, schedule: Q01DX005 (ip), vehicle: Klucel (hydroxypropylcellulose) (HPC)) 108 % of control; under setting [6], 94 % of control; under setting [4], 98 % of control; (dose: 200.0 mg/kg/injection, schedule: Q01DX005 (ip), vehicle: Klucel (hydroxypropylcellulose) (HPC)) 89 % of control; (dose: 200.0 mg/kg/injection, schedule: Q01DX009 (ip), vehicle: Klucel (hydroxypropylcellulose) (HPC)) 97 % of control; (dose: 200.0 mg/kg/injection, schedule: Q04DX002 (ip), vehicle: Klucel (hydroxypropylcellulose) (HPC)) 103 % of control. Also, the T/C is, setting by setting: (dose: 400.0 mg/kg/injection, schedule: Q01DX005 (ip), vehicle: Klucel (hydroxypropylcellulose) (HPC)) 86 % of control; (dose: 400.0 mg/kg/injection, schedule: Q01DX009 (ip), vehicle: Klucel (hydroxypropylcellulose) (HPC)) 94 % of control; (dose: 400.0 mg/kg/injection, schedule: Q04DX002 (ip), vehicle: Klucel (hydroxypropylcellulose) (HPC)) 103 % of control.

In the case of `Cc1cccc(C)c1NC(=O)NC/C(Br)=C/Br`, the T/C under setting [7] is 100 % of control; the T/C under setting [9] is 100 % of control; the T/C (dose: 300.0 mg/kg/injection, schedule: Q01DX009 (ip), vehicle: Klucel (hydroxypropylcellulose) (HPC)) was 104 % of control.

With `Nc1nc(=O)n(CCCOc2ccccc2)cc1-c1ccc(Cl)c(Cl)c1`, the T/C by setting is: (dose: 100.0 mg/kg/injection, schedule: Q01DX001 (ip), vehicle: gum acacia) 99 % of control; (dose: 200.0 mg/kg/injection, schedule: Q01DX001 (ip), vehicle: gum acacia) 94 % of control.

With `CC(=O)Nc1ccccc1SC(C)=O`, under setting [8], the T/C is 88 % of control.

As for `CC12CCC3C(CCC4=CC(=O)CCC43C)C1CCCN2` (stereo not drawn), the T/C is, setting by setting: (dose: 75.0 mg/kg/injection, schedule: Q01DX001 (sc), vehicle: steriod suspending solution) 93 % of control; (dose: 150.0 mg/kg/injection, schedule: Q01DX001 (sc), vehicle: steriod suspending solution) 90 % of control.

Take `ClCc1ccc(-c2ccc(CCl)cc2)cc1`: the T/C (dose: 30.0 mg/kg/injection, schedule: Q01DX015 (ip), vehicle: carboxymethylcellulose (CMC)) was 116 % of control; the T/C (dose: 60.0 mg/kg/injection, schedule: Q01DX015 (ip), vehicle: carboxymethylcellulose (CMC)) is 106 % of control; the T/C under setting [1] was 100 % of control; the T/C (dose: 120.0 mg/kg/injection, schedule: Q01DX015 (ip), vehicle: carboxymethylcellulose (CMC)) was 102 % of control; the T/C under setting [2] was 104 % of control; the T/C (dose: 240.0 mg/kg/injection, schedule: Q01DX015 (ip), vehicle: carboxymethylcellulose (CMC)) was 98 % of control. Also, the T/C by setting is: (dose: 300.0 mg/kg/injection, schedule: Q01DX015 (ip), vehicle: carboxymethylcellulose (CMC)) 108 % of control; under setting [3], 105 % of control.

Regarding `O=C(NCC(O)CNC(=O)Nc1ccc(C2=NCC(O)CN2)cc1)Nc1ccc(C2=NCC(O)CN2)cc1` (stereo not drawn), the T/C (dose: 25.0 mg/kg/injection, schedule: Q01DX Z (ip), vehicle: carboxymethylcellulose (CMC)) is 100 % of control; the T/C (dose: 50.0 mg/kg/injection, schedule: Q01DX Z (ip), vehicle: carboxymethylcellulose (CMC)) is 108 % of control; the T/C (dose: 100.0 mg/kg/injection, schedule: Q01DX Z (ip), vehicle: carboxymethylcellulose (CMC)) is 121 % of control.

Take `O=C(CCl)c1ccc[nH]1`: the T/C by setting is: (dose: 50.0 mg/kg/injection, schedule: Q01DX015 (ip), vehicle: carboxymethylcellulose (CMC)) 93 % of control; (dose: 75.0 mg/kg/injection, schedule: Q01DX001 (ip), vehicle: carboxymethylcellulose (CMC)) 93 % of control; (dose: 100.0 mg/kg/injection, schedule: Q01DX015 (ip), vehicle: carboxymethylcellulose (CMC)) 93 % of control.

Turning to `COC(=O)c1ccccc1N=NNc1cccc(SC)c1`, the T/C by setting is: (dose: 100.0 mg/kg/injection, schedule: Q04DX003 (ip), vehicle: saline with Tween-80) 95 % of control; (dose: 200.0 mg/kg/injection, schedule: Q04DX003 (ip), vehicle: saline with Tween-80) 93 % of control.

With `Nc1ncnc2c1ncn2C1OCC(O)C1CO` (stereo not drawn), the T/C runs as follows: (dose: 50.0 mg/kg/injection, schedule: Q01DX001 (ip), vehicle: saline) 111 % of control; under setting [10], 109 % of control; under setting [11], 105 % of control.
